In PubChem BioAssay AID1963447 (Molecular Pharmacology Branch, DTP, NCI, 2024):
“And” between values parts separate entries of the source, which are not always exact repeats. Equal entries are not always repeated.

System: 885512-296-R-J2-PDC complex spheroid growth, % test/control
Assay: Anticancer human tumor 885512-296-R-J2-PDC patient-derived breast carcinoma cell line growth inhibition [Asc]
Details: for viability, T/C: stronger effect = lower value
How it was run: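 Tumor cells were grown as complex spheroids with human endothelial cells (HUVEC) and human mesenchymal stem cells as stroma. Agents were tested alone and in combination, in half-log steps down from the clinical Cmax, or from 10 microM where Cmax was unknown.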

[1] = curve of first compound, second compound 0.01 µM
[2] = curve of first compound, second compound 0.0316 µM
[3] = curve of first compound, second compound 0.1 µM
[4] = curve of first compound, second compound 0.316 µM
[5] = curve of first compound, second compound 1 µM
[6] = second compound 0.01 µM, first compound 0.0316 µM
[7] = second compound 0.01 µM, first compound 0.1 µM
[8] = second compound 0.01 µM, first compound 0.316 µM
[9] = second compound 0.01 µM, first compound 1 µM
[10] = second compound 0.0316 µM, first compound 0.0316 µM
[11] = second compound 0.0316 µM, first compound 0.1 µM
[12] = second compound 0.0316 µM, first compound 0.316 µM
[13] = second compound 0.0316 µM, first compound 1 µM
[14] = second compound 0.1 µM, first compound 0.0316 µM
[15] = second compound 0.1 µM, first compound 0.1 µM
[16] = second compound 0.1 µM, first compound 0.316 µM
[17] = second compound 0.1 µM, first compound 1 µM
[18] = second compound 0.316 µM, first compound 0.0316 µM
[19] = second compound 0.316 µM, first compound 0.1 µM
[20] = second compound 0.316 µM, first compound 0.316 µM
[21] = second compound 0.316 µM, first compound 1 µM
[22] = second compound 1 µM, first compound 0.0316 µM
[23] = second compound 1 µM, first compound 0.1 µM
[24] = second compound 1 µM, first compound 0.316 µM
[25] = second compound 1 µM, first compound 1 µM
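Also: spheroids exposed to compounds for seven days.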
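For viability, T/C in this document: 100% = DMSO vehicle control wells.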

`CCN1C(C(=O)NC23CCC(C(=O)O)(CC2)CC3)C(c2cccc(Cl)c2F)C2(C(=O)Nc3cc(Cl)ccc32)C12CCCCC2` (configuration not stated) + CNC(C)C(=O)NC1CN(S(=O)(=O)c2cccc(S(=O)(=O)N3CCC4CCC(C(=O)NC(c5ccccc5)c5ccccc5)N4C(=O)C(NC(=O)C(C)NC)C3)c2)CCC2CCC(C(=O)NC(c3ccccc3)c3ccccc3)N2C1=O was tested, and the IC50 [1] was > 3 µM, the IC50 [2] was 2.97 µM and the IC50 [3] was > 3 µM. For the same molecule, the IC50 [4] was > 3 µM, the IC50 [5] was > 3 µM and the viability, T/C (second compound 0.01 µM, first compound 0.00949 µM) was 85.2%. For the same molecule, the viability, T/C (second compound 0.01 µM, first compound 0.03 µM) was 77.7%, the viability, T/C (second compound 0.01 µM, first compound 0.0949 µM) was 87% and the viability, T/C (second compound 0.01 µM, first compound 0.3 µM) was 84%. The viability, T/C (second compound 0.01 µM, first compound 0.949 µM) was 67%, the viability, T/C (second compound 0.01 µM, first compound 3 µM) was 53.5% and the viability, T/C (second compound 0.0316 µM, first compound 0.00949 µM) was 103%. It also gave a viability, T/C (second compound 0.0316 µM, first compound 0.03 µM) of 98.3%, a viability, T/C (second compound 0.0316 µM, first compound 0.0949 µM) of 88.7% and a viability, T/C (second compound 0.0316 µM, first compound 0.3 µM) of 97.2%. It also gave a viability, T/C (second compound 0.0316 µM, first compound 0.949 µM) of 84.7%, a viability, T/C (second compound 0.0316 µM, first compound 3 µM) of 49.4% and a viability, T/C (second compound 0.1 µM, first compound 0.00949 µM) of 98.7%. The viability, T/C (second compound 0.1 µM, first compound 0.03 µM) was 107%, the viability, T/C (second compound 0.1 µM, first compound 0.0949 µM) was 108% and the viability, T/C (second compound 0.1 µM, first compound 0.3 µM) was 104%. The viability, T/C (second compound 0.1 µM, first compound 0.949 µM) was 77.2%, the viability, T/C (second compound 0.1 µM, first compound 3 µM) was 51.7% and the viability, T/C (second compound 0.316 µM, first compound 0.00949 µM) was 104%. For the same molecule, the viability, T/C (second compound 0.316 µM, first compound 0.03 µM) was 103%, the viability, T/C (second compound 0.316 µM, first compound 0.0949 µM) was 111% and the viability, T/C (second compound 0.316 µM, first compound 0.3 µM) was 97.9%. It also gave a viability, T/C (second compound 0.316 µM, first compound 0.949 µM) of 86%, a viability, T/C (second compound 0.316 µM, first compound 3 µM) of 57.8% and a viability, T/C (second compound 1 µM, first compound 0.00949 µM) of 104%. For the same molecule, the viability, T/C (second compound 1 µM, first compound 0.03 µM) was 118%, the viability, T/C (second compound 1 µM, first compound 0.0949 µM) was 111% and the viability, T/C (second compound 1 µM, first compound 0.3 µM) was 101%. The viability, T/C (second compound 1 µM, first compound 0.949 µM) was 90% and the viability, T/C (second compound 1 µM, first compound 3 µM) was 60.3%.

In the case of `C=C(F)C(=O)N1CCN(c2nc(OCC3CCCN3C)nc3c2CCN(c2cccc4cccc(Cl)c24)C3)CC1CC#N` (configuration not stated), the viability, T/C (compound 0.0316 µM) is reported as 81.9% and 107% and 97.2%, the viability, T/C (compound 0.1 µM) is reported as 97% and 114% and 90.5% and the viability, T/C (compound 0.316 µM) is reported as 104% and 102% and 94.4%. For the same molecule, the viability, T/C (compound 1 µM) was 97.8% and 113% and 110%, the viability, T/C (compound 3.16 µM) was 22% and 31.8% and 50.9% and the viability, T/C (compound 10 µM) was 0.17% and 0.15% and 0.14%. The IC50 (curve of compound) was 2.04 µM and 2.41 µM and 3.23 µM.

With `C=C(F)C(=O)N1CCN(c2nc(OCC3CCCN3C)nc3c2CCN(c2cccc4cccc(Cl)c24)C3)CC1CC#N` (configuration not stated) + CNC(C)C(=O)NC1CN(S(=O)(=O)c2cccc(S(=O)(=O)N3CCC4CCC(C(=O)NC(c5ccccc5)c5ccccc5)N4C(=O)C(NC(=O)C(C)NC)C3)c2)CCC2CCC(C(=O)NC(c3ccccc3)c3ccccc3)N2C1=O the IC50 [1] was 2.66 µM, the IC50 [2] was 2.29 µM and the IC50 [3] was 2.45 µM. For the same molecule, the IC50 [4] was 2.24 µM, the IC50 [5] was 2.24 µM and the viability, T/C [6] was 88.6%. For the same molecule, the viability, T/C [7] was 91.8%, the viability, T/C [8] was 95.7% and the viability, T/C [9] was 84.8%. The viability, T/C (second compound 0.01 µM, first compound 3.16 µM) was 43.8%, the viability, T/C (second compound 0.01 µM, first compound 10 µM) was 0.11% and the viability, T/C [10] was 100%. It also gave a viability, T/C [11] of 101%, a viability, T/C [12] of 100% and a viability, T/C [13] of 99.7%. It also gave a viability, T/C (second compound 0.0316 µM, first compound 3.16 µM) of 30.7%, a viability, T/C (second compound 0.0316 µM, first compound 10 µM) of 0.3% and a viability, T/C [14] of 105%. The viability, T/C [15] was 102%, the viability, T/C [16] was 102% and the viability, T/C [17] was 104%. The viability, T/C (second compound 0.1 µM, first compound 3.16 µM) was 34.9%, the viability, T/C (second compound 0.1 µM, first compound 10 µM) was 0.09% and the viability, T/C [18] was 110%. The viability, T/C [19] was 103%, the viability, T/C [20] was 113% and the viability, T/C [21] was 103%. The viability, T/C (second compound 0.316 µM, first compound 3.16 µM) was 27.5%, the viability, T/C (second compound 0.316 µM, first compound 10 µM) was 0.09% and the viability, T/C [22] was 114%. The viability, T/C [23] was 113%, the viability, T/C [24] was 115% and the viability, T/C [25] was 95.3%. The viability, T/C (second compound 1 µM, first compound 3.16 µM) was 30.5% and the viability, T/C (second compound 1 µM, first compound 10 µM) was 0.38%.

`COc1c(OCCCN2CCOCC2)ccc2c3n(c(=NC(=O)c4cnc(N)nc4)nc12)CCN3` + CNC(C)C(=O)NC1CN(S(=O)(=O)c2cccc(S(=O)(=O)N3CCC4CCC(C(=O)NC(c5ccccc5)c5ccccc5)N4C(=O)C(NC(=O)C(C)NC)C3)c2)CCC2CCC(C(=O)NC(c3ccccc3)c3ccccc3)N2C1=O showed an IC50 [1] of 0.358 µM, an IC50 [2] of 0.394 µM and an IC50 [3] of 0.387 µM. The IC50 [4] was 0.41 µM, the IC50 [5] was 0.343 µM and the viability, T/C (second compound 0.01 µM, first compound 0.00316 µM) was 85.2%. For the same molecule, the viability, T/C (second compound 0.01 µM, first compound 0.01 µM) was 86.4%, the viability, T/C [6] was 79.6% and the viability, T/C [7] was 88.2%. The viability, T/C [8] was 55.1%, the viability, T/C [9] was 7.8% and the viability, T/C (second compound 0.0316 µM, first compound 0.00316 µM) was 98.4%. The viability, T/C (second compound 0.0316 µM, first compound 0.01 µM) was 92.1%, the viability, T/C [10] was 89.3% and the viability, T/C [11] was 85.3%. It also gave a viability, T/C [12] of 59.3%, a viability, T/C [13] of 8.15% and a viability, T/C (second compound 0.1 µM, first compound 0.00316 µM) of 104%. For the same molecule, the viability, T/C (second compound 0.1 µM, first compound 0.01 µM) was 98.6%, the viability, T/C [14] was 86.3% and the viability, T/C [15] was 81.8%. The viability, T/C [16] was 61.5%, the viability, T/C [17] was 8.94% and the viability, T/C (second compound 0.316 µM, first compound 0.00316 µM) was 89.5%. For the same molecule, the viability, T/C (second compound 0.316 µM, first compound 0.01 µM) was 93.2%, the viability, T/C [18] was 97.4% and the viability, T/C [19] was 83.6%. For the same molecule, the viability, T/C [20] was 62.6%, the viability, T/C [21] was 7.92% and the viability, T/C (second compound 1 µM, first compound 0.00316 µM) was 102%. It also gave a viability, T/C (second compound 1 µM, first compound 0.01 µM) of 105%, a viability, T/C [22] of 99.8% and a viability, T/C [23] of 79%. For the same molecule, the viability, T/C [24] was 54.5% and the viability, T/C [25] was 8.06%.
